Assay results as given in PubChem BioAssay (NCI).
“And” between values parts separate entries of the source, which are not always exact repeats. Equal entries are not always repeated.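 Assay format: 96-well plates, 48-hour exposure. At the GI50, growth is halved. TGI is the concentration that stops growth completely.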

Legend:
Assay in all cases: growth of human tumour cells (NCI), 48 h
786-0 renal = test system: 786-0 renal
RPMI-8226 leukemia = test system: RPMI-8226 leukemia
HOP-62 NSCLC = test system: HOP-62 NSCLC
BT-549 breast = test system: BT-549 breast
LOX IMVI melanoma = test system: LOX IMVI melanoma
HL-60(TB) leukemia = test system: HL-60(TB) leukemia
SK-OV-3 ovarian = test system: SK-OV-3 ovarian
HCT-15 colon = test system: HCT-15 colon
HT29 colon = test system: HT29 colon
SF-268 CNS = test system: SF-268 CNS

SMILES | TGI (786-0 renal) [µM] | TGI (RPMI-8226 leukemia) | TGI (HOP-62 NSCLC) [µM] | TGI (BT-549 breast) [µM] | TGI (LOX IMVI melanoma) [µM] | TGI (HL-60(TB) leukemia) [µM] | TGI (SK-OV-3 ovarian) | TGI (HCT-15 colon) [µM] | TGI (HT29 colon) [µM] | TGI (SF-268 CNS) [µM] | GI50 (RPMI-8226 leukemia) [µM] | GI50 (HOP-62 NSCLC) | GI50 (LOX IMVI melanoma) [µM] | GI50 (HL-60(TB) leukemia) [µM] | GI50 (SK-OV-3 ovarian) | GI50 (HCT-15 colon) [µM] | GI50 (HT29 colon) [µM] | GI50 (BT-549 breast) [µM] | GI50 (SF-268 CNS) [µM]
CC(=O)OCC1OC(N2C(=O)CC(N)=Nc3ccccc32)C(OC(C)=O)C(OC(C)=O)C1OC(C)=O (centres undefined) | > 100 | 49.8 µM | > 100 | > 100 | > 100 | > 100 | > 100 µM | > 100 | > 100 | > 100 |  |  |  |  |  |  |  |  | 
Nc1nccc2c1ncn2C1C=C(CO)C(O)C1O (centres undefined) |  | > 1000 µM | 89.9 |  | > 1000 | > 1000 | > 1000 µM | > 1000 | > 1000 |  | 243 | 0.408 µM | 335 | 0.337 | > 1000 µM | 226 | 0.816 |  | 
Cc1ccc(NC(=O)CC(=O)n2nc(-c3ccccc3)c(N=Nc3ccccc3C(=O)O)c2-c2ccccc2)cc1 |  | > 100 µM | > 100 |  | > 100 |  | > 100 µM | > 100 |  | > 100 |  |  |  |  |  |  |  |  | 
O=C1/C(=C/c2ccc3c(c2)OCO3)Sc2scc(-c3ccc(O)c(O)c3)[n+]21 | 5.48 | 4.42 µM | 41.6 | 6.13 |  |  | 17.5 µM | 3.61 | 18.6 | 97.2 |  |  |  |  |  |  |  |  | 
Cc1cc(O)c2cc3c(O)c(O)ccc3cc2c1 | > 47.8 | > 100 µM | 10.3 | > 44.3 | > 42.3 | 4.16 | 9.82 µM | 5.91 | 8.43 | 8.51 |  |  |  |  |  |  |  |  | 
O=CN(O)CC(=O)O.[Ni] | > 100 | > 100 µM | > 100 | > 100 | > 100 | > 100 | > 100 µM | > 100 | > 100 | > 100 |  |  |  |  |  |  |  |  | 
OCCSCc1cc(Cl)cc(Cl)c1O | > 100 | > 100 µM | > 100 | > 100 | > 100 |  | > 100 µM | > 100 | > 100 | > 100 |  |  |  |  |  |  |  |  | 
NS(=O)(=O)c1ccc(N=Nc2ccc(O)c(O)c2)cc1 | > 100 | 39.7 µM | 56.3 | 14.4 | 36 | 86.9 | 67 µM | 12.6 | 66.5 | 50.2 |  |  |  |  |  |  |  |  | 
CC(=O)C1=C(C)N(c2ccc(C)cc2)C2(O)C=CC(=O)C3=C(O)c4ccccc4C(=O)C312 (centres undefined) | > 100 | > 100 µM | > 100 | 38.9 | > 100 | > 100 | > 100 µM | > 100 | 15.7 | 62.4 |  |  |  |  |  |  |  |  | 
CC(C)(C)C(=O)CC(=O)C(F)(F)C(F)(F)C(F)(F)F.CC(C)(C)C(=O)CC(=O)C(F)(F)C(F)(F)C(F)(F)F.CC(C)(C)C(=O)CC(=O)C(F)(F)C(F)(F)C(F)(F)F.[Er] | > 100 | > 100 µM | > 100 | > 100 | > 100 | > 100 | > 100 µM |  | > 100 | > 100 |  |  |  |  |  |  |  | > 100 | 
Cc1ccc([S+](c2ccccc2)c2cc(C)ccc2C)cc1 (centres undefined) | > 100 | > 100 µM | 90.8 |  | > 100 | 66.5 |  |  |  | > 100 |  |  |  |  |  |  |  |  | 
O=CNNC(=O)CSc1nc2ccc(I)cc2c(=O)n1Cc1ccccc1 | > 100 | 23.8 µM | > 100 | 99 | 69.1 | 89.7 | > 100 µM | > 100 | > 100 | > 100 |  |  |  |  |  |  |  |  | 
O=C1CC(NC2CC(=O)c3c(Br)sc(Br)c32)c2c(Br)sc(Br)c21 (centres undefined) | 2.9 |  | 12.2 | 38.9 | 4.68 | 7.65 | 32.6 µM | 9.2 | 8.91 | 26.2 |  |  |  |  |  |  |  |  | 
COC[C@@H]1Cc2cc(OC)c3c(c2[C@H](c2ccc(OC)c(OC)c2)[C@H]1COC)OCO3 |  |  |  |  | > 100 | > 100 | > 100 µM | > 100 | > 100 | > 100 |  |  |  |  |  |  |  |  | 
O=NN(CCCl)C(=O)Nc1ccc(Cl)c(Cl)c1 |  | > 100 µM | > 100 |  | > 100 | > 100 | > 100 µM | > 100 | > 100 | > 100 |  |  |  |  |  |  |  |  | 
O=S(=O)(c1ccccc1)[C@@H]1[C@H]2C=C[C@](CS)(O2)[C@H]1S(=O)(=O)c1ccccc1 | 87.2 |  | > 100 | > 100 | > 100 | > 100 | > 100 µM | 28.4 | > 100 | > 100 |  |  |  |  |  |  |  |  | 
COc1cc(CCC(=O)O)c2cc3ccccc3cc2c1O | 30.4 | 26.4 µM | 32.7 | 30.9 | 53.5 | 39.1 | > 100 µM | 43.9 | 43.8 | 38.1 |  |  |  |  |  |  |  |  | 
O=[N+]([O-])c1ccc(/C=N/n2c(CCc3n[nH]c(=S)n3/N=C/c3ccc([N+](=O)[O-])o3)n[nH]c2=S)o1 | 31.9 | > 100 µM | 69.8 |  | 50.6 | 97.7 | > 100 µM | 32.7 | 86.4 | 50.7 |  |  |  |  |  |  |  |  | 
O=C1CSc2sc(=S)sc2S1 |  | > 100 µM | > 100 |  | > 100 | > 100 | > 100 µM | > 100 | > 100 | > 100 |  |  |  |  |  |  |  |  | 
Oc1ccc(NCc2cc(O)ccc2O)cc1 | 31.9 | 44.4 µM | 35.7 | 25.8 | 38 | 11.7 | 36.7 µM | 36.8 | 57.6 | 34.8 |  |  |  |  |  |  |  |  | 
COc1cccc2c1C(=O)c1c(O)c3c(c(O)c1C2=O)C[C@@](O)(C(C)=O)C[C@@H]3OC1CC(N(C)C)C(O)C(C)O1 (some centres undefined) | 1.36 | 0.23 µM and 1.92 µM |  | 0.00562 |  |  | 3.17 µM and 3.85 µM |  | 5.91 |  | < 0.0159 | 0.117 µM and < 0.0167 µM | 0.00387 | 0.0402 | 0.144 µM and 0.115 µM | 0.0211 | 0.00516 |  | < 0.0191
O=C1NC2(NC(=O)C1=O)Nc1ccccc1S2 | 48.6 | 57.9 µM | > 100 |  | 37.8 | > 64.8 | > 100 µM | > 59.5 | > 100 | > 76.3 |  |  |  |  |  |  |  |  | 
CC(C)(C)OC(=O)N1CCCC1C(=O)NCCNc1ccc(NCCNC(=O)C2CCCN2C(=O)OC(C)(C)C)c2c1C(=O)c1ccccc1C2=O (centres undefined) | 28 | 0.0538 µM | 33.2 | 25.7 | 26.3 | > 100 | 39.6 µM | 26.8 | 38.2 | > 100 |  |  |  |  |  |  |  |  | 
